The results in this text go back to EP0908457B1, “3-(1,2-benzisothiazol- and isoxazol-5-Y1)-2,4(1H,3H)-pyrimidinedione or thione and 3-(1,2-benzisothiazol- and isoxazol-5-y1)-4(3H)-pyrimidinone or thione herbicidal agents” (BASF AKTIENGESELLSCHAFT, priority 1997, dated 1999).

The subject of series [1] is Monochoria vaginalis, Presl. In words: Preemergence weed control under flooded paddy conditions, MOOVA (Monochoria). For herbicidal effect rating, MOOVA: meaning of each grade not given here. Conditions: flooded paddy, rated three to four weeks after treatment. In kind it is in vivo.
Series [2] deals with Echinochloa oryzoides (Ard.) Fritsch. In words: Preemergence weed control under flooded paddy conditions, ECHORC (Watergrass (Calif.)). For herbicidal effect rating, ECHORC: meaning of each grade not given here. In kind it is in vivo. The settings on record: flooded paddy, rated three to four weeks after treatment.
In series [3] the test system is Oryza sativa, (L.) Tebonnet. In words: Rice tolerance to post-transplant applications under flooded paddy conditions (Example 187), ORYSAT (Rice, Tebonnet). The settings on record: rated three to four weeks after treatment.
The subject of another series is Cyperus iria. The series is described as follows: Preemergence weed control under flooded paddy conditions, CYPIR (Rice Flatsedge). For herbicidal effect rating, CYPIR: meaning of each grade not given here. The class given is in vivo. Conditions: flooded paddy, rated three to four weeks after treatment.
Series [4] has as its system Cyperus serotinus, Rottb. The series is described as follows: Preemergence weed control under flooded paddy conditions, CYPSE (Flatsedge). For herbicidal effect rating, CYPSE: meaning of each grade not given here. Conditions: rated three to four weeks after treatment. The class given is in vivo.
In another series the test system is Sagittaria pygmaea, L. In words: Preemergence weed control under flooded paddy conditions, SAGPY (Arrowhead (Pygmaea)). For herbicidal effect rating, SAGPY: meaning of each grade not given here. The class given is in vivo. The settings on record: flooded paddy, rated three to four weeks after treatment.
Setting [5] is: Rate 0.0320 kg/ha, preemergence.
Where [6] appears, read: Rate 0.0620 kg/ha, preemergence.
[7] abbreviates: Rate 0.1250 kg/ha, preemergence.
The mark [8] stands for this setting: Rate 0.2500 kg/ha, preemergence.
Setting [9] is: 0.0313 kg/ha, preemergence weeds.
[10] abbreviates: 0.0625 kg/ha, preemergence weeds.
Where [11] appears, read: 0.1250 kg/ha, preemergence weeds.
[12] abbreviates: 0.2500 kg/ha, preemergence weeds.

As for `CC(C#N)c1nsc2ccc(-n3c(=O)cc(C(F)(F)F)n(C)c3=O)cc12` (stereo not drawn) [Example 583, 1,2-Benzisothiazole-3-acetonitrile, 5-[3,6-dihydro-3-methyl-2,6-dioxo-4-(trifluoromethyl)-1(2H)-pyrimidinyl]-alpha-methyl-], the “herbicidal effect rating, MOOVA” value in series [1] (setting [5]) came out at 6.0; in series [1] (setting [6]), 9.0; in series [1] (setting [7]) it was 9.0; in series [1] (setting [8]), 9.0. For the same molecule, the “herbicidal effect rating, ECHORC” value in series [2] (setting [5]) was 3.0; in series [2] (setting [6]), 7.5; in series [2] (setting [7]), 9.0; in series [2] (setting [8]), 9.0. Further, the “herbicidal effect rating ORYSAT” value is 5.0 in series [3] (Rate 0.0320 kg/ha), 7.0 in series [3] (Rate 0.0620 kg/ha), 9.0 in series [3] (Rate 0.1250 kg/ha) and 9.0 in series [3] (Rate 0.2500 kg/ha). Besides, the “herbicidal effect rating, CYPIR” value with Cyperus iria (setting [5]), in the series with Cyperus iria (setting [6]), in the series with Cyperus iria (setting [7]) and in the series on Cyperus iria (setting [8]) was 9.0 in each case. Further, the “herbicidal effect rating, CYPSE” value was 8.5 in series [4] (setting [5]), 9.0 in series [4] (setting [6]), 9.0 in series [4] (setting [7]) and 9.0 in series [4] (setting [8]). For the same molecule, the “herbicidal effect rating, SAGPY” value with Sagittaria pygmaea, L. (setting [5]) was determined as 9.0; in the series on Sagittaria pygmaea, L. (setting [6]), 9.0; in the series on Sagittaria pygmaea, L. (setting [7]) it was 9.0; in the series on Sagittaria pygmaea, L. (setting [8]) it was 9.0.

For `CC(C)c1nsc2ccc(-n3c(=O)cc(C(F)(F)F)n(C)c3=O)cc12` [Example 499, 2,4(1H,3H)-Pyrimidinedione, 3-(3-isopropyl-1,2-benzisothiazol-5-yl)-1-methyl-6-(trifluoromethyl)-], the MOOVA herbicidal rating in series [1] (0.0320 kg/ha, preemergence) was 8.0; in series [1] (0.0620 kg/ha, preemergence), 9.0; in series [1] (0.1250 kg/ha, preemergence), 9.0; in series [1] (0.2500 kg/ha, preemergence), 9.0. In addition, the ECHORC herbicidal rating was 7.5 in series [2] (0.0320 kg/ha, preemergence); 9.0 in series [2] (0.0620 kg/ha, preemergence); 9.0 in series [2] (0.1250 kg/ha, preemergence); 9.0 in series [2] (0.2500 kg/ha, preemergence). Moreover, the “ORYSAT herbicidal rating (rice tolerance)” value was 6.5 in series [3] (0.0320 kg/ha), 8.0 in series [3] (0.0620 kg/ha), 7.5 in series [3] (0.1250 kg/ha) and 9.0 in series [3] (0.2500 kg/ha). The CYPIR herbicidal rating in the series with Cyperus iria (0.0320 kg/ha, preemergence) is 8.0; in the series on Cyperus iria (0.0620 kg/ha, preemergence), 9.0; with Cyperus iria (0.1250 kg/ha, preemergence), 9.0; with Cyperus iria (0.2500 kg/ha, preemergence) it was 9.0. Moreover, the CYPSE herbicidal rating amounted to 9.0 in series [4] (0.0320 kg/ha, preemergence); 9.0 in series [4] (0.0620 kg/ha, preemergence); 9.0 in series [4] (0.1250 kg/ha, preemergence); 9.0 in series [4] (0.2500 kg/ha, preemergence). The SAGPY herbicidal rating with Sagittaria pygmaea, L. (0.0320 kg/ha, preemergence) worked out at 8.0; in the series with Sagittaria pygmaea, L. (0.0620 kg/ha, preemergence), 9.0; with Sagittaria pygmaea, L. (0.1250 kg/ha, preemergence), 9.0; with Sagittaria pygmaea, L. (0.2500 kg/ha, preemergence), 9.0.

Regarding `CC(=O)/C=C/c1nsc2ccc(-n3c(=O)cc(C(F)(F)F)n(C)c3=O)cc12` [Example 285, 2,4(1H,3H)-Pyrimidinedione, 1-methyl-3-[3-(3-oxo-1-butenyl)-1,2-benzisothiazol-5-yl]-6-(trifluoromethyl)-, (E)-], the “MOOVA herbicidal effect rating” value came out at 4.0 in series [1] (setting [5]), 9.0 in series [1] (setting [6]), 9.0 in series [1] (setting [7]) and 9.0 in series [1] (setting [8]). The “ECHORC herbicidal effect rating” value in series [2] (setting [5]) is 3.0; in series [2] (setting [6]) it was 7.0; in series [2] (setting [7]), 7.0; in series [2] (setting [8]) it was 7.0. In addition, the “ORYSAT herbicidal effect rating” value in series [3] (Rate 0.0320 kg/ha) stood at 3.0; in series [3] (Rate 0.0620 kg/ha) it was 7.0; in series [3] (Rate 0.1250 kg/ha) it was 7.0; in series [3] (Rate 0.2500 kg/ha), 7.0. Besides, the “CYPIR herbicidal effect rating” value was 5.0 in the series on Cyperus iria (setting [5]), 9.0 in the series on Cyperus iria (setting [6]), 9.0 in the series on Cyperus iria (setting [7]) and 9.0 with Cyperus iria (setting [8]). Besides, the “CYPSE herbicidal effect rating” value in series [4] (setting [5]), in series [4] (setting [6]), in series [4] (setting [7]) and in series [4] (setting [8]) was 0.0 throughout. Moreover, the “SAGPY herbicidal effect rating” value came to 0.0 in the series on Sagittaria pygmaea, L. (setting [5]); 0.0 in the series with Sagittaria pygmaea, L. (setting [6]); 0.0 in the series with Sagittaria pygmaea, L. (setting [7]); 3.0 in the series on Sagittaria pygmaea, L. (setting [8]).

As for `CN(C)S(=O)(=O)NC(=O)c1nsc2ccc(-n3c(=O)cc(C(F)(F)F)n(C)c3=O)cc12` [Example 507, 1,2-Benzisothiazole-3-carboxamide, 5-[3,6-dihydro-3-methyl-2,6-dioxo-4-(trifluoromethyl)-1(2H)-pyrimidinyl]-N-(dimethylsulfamoyl)-], the MOOVA herbicidal rating is 9.0 in series [1] (0.0320 kg/ha, preemergence); 9.0 in series [1] (0.0620 kg/ha, preemergence); 9.0 in series [1] (0.1250 kg/ha, preemergence); 9.0 in series [1] (0.2500 kg/ha, preemergence). Moreover, the ECHORC herbicidal rating in series [2] (0.0320 kg/ha, preemergence) is on record as 2.0; in series [2] (0.0620 kg/ha, preemergence), 2.0; in series [2] (0.1250 kg/ha, preemergence) it was 4.0; in series [2] (0.2500 kg/ha, preemergence) it was 7.0. Moreover, the “ORYSAT herbicidal rating (rice tolerance)” value is reported as 3.0 in series [3] (0.0320 kg/ha), 5.0 in series [3] (0.0620 kg/ha), 7.0 in series [3] (0.1250 kg/ha) and 5.0 in series [3] (0.2500 kg/ha). In addition, the CYPIR herbicidal rating is 5.0 with Cyperus iria (0.0320 kg/ha, preemergence); 6.0 with Cyperus iria (0.0620 kg/ha, preemergence); 9.0 with Cyperus iria (0.1250 kg/ha, preemergence); 9.0 with Cyperus iria (0.2500 kg/ha, preemergence). This molecule also returned a CYPSE herbicidal rating in series [4] (0.0320 kg/ha, preemergence) of 0.0. Also, the SAGPY herbicidal rating with Sagittaria pygmaea, L. (0.0320 kg/ha, preemergence) came out at 7.0; in the series with Sagittaria pygmaea, L. (0.0620 kg/ha, preemergence), 9.0; with Sagittaria pygmaea, L. (0.1250 kg/ha, preemergence), 9.0; with Sagittaria pygmaea, L. (0.2500 kg/ha, preemergence), 9.0.

For `Cc1ccc(S(=O)(=O)NC(=O)COc2ccc(C)cc2-c2nsc3ccc(-n4c(=O)cc(C(F)(F)F)n(C)c4=O)cc23)cc1` [Example 122, N-{{{2-{5-[3,6-Dihydro-3-methyl-2,6-dioxo-4-(trifluoromethyl)-1(2H)-pyrimidinyl]-1,2-benzisothiazol-3-yl}-p-tolyl}oxy}acetyl}-p-toluenesulfonamide], the “herbicidal effect rating, MOOVA” value in series [1] (setting [9]) came out at 6.0; in series [1] (setting [10]), 8.0; in series [1] (setting [11]) it was 9.0; in series [1] (setting [12]) it was 9.0. Further, the “herbicidal effect rating, ECHORC” value in series [2] (setting [9]) worked out at 4.0; in series [2] (setting [10]), 7.0; in series [2] (setting [11]), 8.0; in series [2] (setting [12]), 9.0. Further, the “herbicidal effect rating, ORYSAT (rice tolerance)” value in series [3] (0.0313 kg/ha) is given as 2.0; in series [3] (0.0625 kg/ha), 3.0; in series [3] (0.1250 kg/ha), 4.0; in series [3] (0.2500 kg/ha), 4.0. Besides, the “herbicidal effect rating, CYPIR” value in the series with Cyperus iria (setting [9]), in the series with Cyperus iria (setting [10]), in the series with Cyperus iria (setting [11]) and in the series on Cyperus iria (setting [12]) was 0.0 each time. Also, the “herbicidal effect rating, CYPSE” value in series [4] (setting [9]), in series [4] (setting [10]), in series [4] (setting [11]) and in series [4] (setting [12]) was 0.0 throughout. In addition, the “herbicidal effect rating, SAGPY” value is given as 0.0 in the series with Sagittaria pygmaea, L. (setting [9]); 0.0 with Sagittaria pygmaea, L. (setting [10]); 0.0 in the series on Sagittaria pygmaea, L. (setting [11]); 0.0 in the series on Sagittaria pygmaea, L. (setting [12]).
